According to US20060004036A1, “Sigma-2 receptor agonists and their use in the treatment of HIV infection” (The United States of America, per Secy. DHHS, NIH, priority 2003, published 2006):

Columns and labels:
HIV = HIV infectivity assay, luciferase activity in CEMX174 cells with SIV LTR-driven luciferase gene; assay type: cell-based; settings: for inhibition of HIV infection (in words): lymphocytes incubated 24 hours with drug, washed, exposed to HIV for 24 hours, luciferase activity (FIG. 2)
Protocol: CEMX174 cells transfected with a luciferase gene driven by the Simian Immunodeficiency Virus (SIV) LTR are used in infectivity assays. Cells are then treated with sigma-2 receptor agonists at various concentrations followed by incubation in the presence or absence (control) of HIV. Luciferase activity quantifies HIV replication.
This inhibition of HIV infection occurs at doses within the range of concentrations of CB-184 and haldol that produce reductions in membrane sphingomyelin, as shown above in FIG. 1. In these experiments, lymphocytes transfected with a luciferease gene driven by the Simian Immunodeficiency virus (SIV)LTR were incubated for 24 hours in the presence of the indicated dose of sigma-2 receptor agonist. The drugs were then removed, cells were washed and exposed to HIV for 24 hours. Cells were then lysed and luciferase activity quantified. Luciferase activity indicates the level of infectivity of the HIV virions. All of the compounds evaluated with sigma-2 agonist activity inhibited HIV infection at concentrations that were non-toxic to lymphocytes.

H9 lymphocytes = assay: Membrane sphingomyelin levels in [3H]palmitic acid-labeled H9 lymphocytes; assay type: cell-based; settings: H9 cells, 24 hours incubation (FIG. 1)
Protocol: Methods: Membrane sphingomyelin is metabolically labeled in H9 lymphocytes by incubating the cells with [^3H] palmitic acid in supplemented RPMI media for 48 h. Labeled media is removed and cells are incubated in the presence or absence of various concentrations of the sigma-2 receptor agonists CB-184 or haldol (haloperidol) for 24 hours. Total lipids are extracted and the dried organic layer is chromatographed on Silica G-60 plates. Sphingomyelin spots are scraped and quantified by liquid scintillation counting.

| Compound | inhibition of HIV infection (in words) (HIV) | effect of the antagonist on the ability of CB-184 to inhibit HIV infection of lymphocytes (in words) (HIV; with CB-184 at various doses and different HIV viral titres (FIG. 3, 4, 5)) | reduction of control levels of membrane sphingomyelin (H9 lymphocytes; 0.3 μM) | reduction of control levels of membrane sphingomyelin (H9 lymphocytes; 1 μM) [%] |
| --- | --- | --- | --- | --- |
| CN(CCc1ccc(Cl)c(Cl)c1)[C@H]1CCCC[C@H]1N1CCCC1 (relative stereo) [BD737, 1S,2R-(+)-cis-N-[2-(3,4-dichlorophenyl)ethyl]-N-methyl-2-(1-pyrrolidinyl)-cyclohexylamine] | dose-dependent inhibition | – | – | – |
| c1ccc(CCN2CCCCC2)cc1 [AC-927, N-phenethylpiperidine, reference compound] | – | reversed | – | – |
| CN1CC[C@]2(c3cccc(O)c3)CC(=O)/C(=C/c3ccccc3)[C@H]1C2 [CB-64D] | dose-dependent inhibition | – | – | – |
| CN1CC[C@]2(c3cccc(O)c3)CC(=O)/C(=C/c3ccc(Cl)c(Cl)c3)[C@H]1C2 [CB-184, (+)-1R,5R-E-8-(3,4-dichlorobenzylidene)-5-(3-hydroxyphenyl)-2-methylmorphan-7-one] | dose-dependent inhibition | – | about 39% | ~45 |
| O=C(CCCN1CCC(O)(c2ccc(Cl)cc2)CC1)c1ccc(F)cc1 [haldol, haloperidol, reference compound] | dose-dependent inhibition | – | – | – |
